# According to US7067155B2, “Anti-inflammatory humate compositions and methods of use thereof” (TBNI, Inc., priority 2003, dated 2006):
# System: carrageenan-induced edema
# Assay: Carrageenan-induced hind paw edema in rats, humate in chow for 37 days with or without indomethacin (Example 3)
# Format: in vivo, rat
# Settings: indomethacin only, 3 mg/kg subcutaneously 30 min before carrageenan; P<0.05
# Description: Male Sprague Dawley rats weighing approximately 50 g were purchased from Harlan U.S. and housed in wire cages in the animal facility at Mercer University School of Pharmacy. The animals were given a short period of time to acclimate to the new environment and received powdered rat chow from Purina and water ad libitum. At the beginning of the experimental period, the rats were divided into six groups of eight each. Control and indomethacin only groups received only powdered rat chow for the entire length of the experiment. For the four other groups, insoluble granular Menefee Humate® was mixed with the powdered rat chow and placed in feeders. Rats received chow with either 0.1%, 0.5% or 1.0% insoluble, granular Menefee Humate® by weight. After 37 days of receiving humate in their food, the animals weighed approximately 278 g, which in an appropriate size for inducing inflammation. An amount of indomethacin sufficient to achieve 50% inhibition of carrageenan-induced edema (3 mg/kg) was administered to the indomethacin only group and to the 0.1% humate plus indomethacin group. The indomethacin was administered subcutaneously 30 minutes before the administration of carageenan. The rats were then injected in one hind paw with carrageenan (2%). After three hours, the hind paws were measured by mercury displacement.
smiles,measurement,value
COc1ccc2c(c1)c(CC(=O)O)c(C)n2C(=O)c1ccc(Cl)cc1 [indomethacin],inhibition of carrageenan-induced edema,~50%
